Laboratory results: patent publication US11339171B2, “MDM2 inhibitors” (Gan & Lee Pharmaceuticals, priority 2017, dated 2022)

Target: T1, MDM2 (Homo sapiens, UniProt Q00987)
T1 construct: made in house
Assay: Inhibition test of MDM2-P53 (GST-MDM2, Biotin-P53, Anti-GST-Tb, SA-XL665)
Assay type: binding
Conditions: for inhibitory effect on MDM2 compared with positive control compound HDM201: labels are Example numbers, the compounds with S-configuration are meant
Experimental: Experimental purpose: To determine the inhibitory activities of the compounds of the present invention on MDM2.
The present experiment uses the following assay methods/instruments/reagents:
Buffer: 1×PBS+0.1% BSA+5 mM DTT; MDM2 Buffer: Buffer+1 mM AEBSF
GST-MDM2: The final concentration is 4 nM, and it is required to formulate a 20 nM (5×) solution. A mother liquor is diluted by 3500 folds, wherein the mother liquor is 10-fold diluted first, and then 350-fold diluted.
Anti-GST-Tb: The final concentration is 2×, and a mother liquor is diluted by 50 folds.
MIX: GST-MDM2, Biotin-P53, SA-XL665 and Anti-GST-Tb were mixed according to a ratio of 4:4:5:5.
Sample: Preparation of a sample (10 mM in DMSO) solution: a. 3 μL sample+7 μL DMSO+20 μL DMSO were formulated to give an initial concentration of 1 mM and mixed well; b. in plate 1, twelve 5-fold serial dilutions (sequentially prepared by adding 10 μL of the last sample to 40 μL DMSO) were prepared and mixed well, individually; c. plate 2 was taken, 45 μL of Buffer was added to each well, and 5 μL of dilution at each concentration was taken from plate 1 and added to the corresponding well in plate 2 (the concentration in well 1 was 100 μM), and mixed well.
1. 18 μL of MIX was added to a 384-well plate, and centrifugation was performed at 4500 rpm for 5 min.
2. 2 μL of sample was added correspondingly to each well, the resultant was centrifuged at 25° C. and 4500 rpm for 5 min, and shaked at 25° C. for 90 min on a shaker.
Readings were obtained from the Microplate reader, and data was processed by Graphpad Prism 6.0.

T1 sequence (Q00987 whole entry): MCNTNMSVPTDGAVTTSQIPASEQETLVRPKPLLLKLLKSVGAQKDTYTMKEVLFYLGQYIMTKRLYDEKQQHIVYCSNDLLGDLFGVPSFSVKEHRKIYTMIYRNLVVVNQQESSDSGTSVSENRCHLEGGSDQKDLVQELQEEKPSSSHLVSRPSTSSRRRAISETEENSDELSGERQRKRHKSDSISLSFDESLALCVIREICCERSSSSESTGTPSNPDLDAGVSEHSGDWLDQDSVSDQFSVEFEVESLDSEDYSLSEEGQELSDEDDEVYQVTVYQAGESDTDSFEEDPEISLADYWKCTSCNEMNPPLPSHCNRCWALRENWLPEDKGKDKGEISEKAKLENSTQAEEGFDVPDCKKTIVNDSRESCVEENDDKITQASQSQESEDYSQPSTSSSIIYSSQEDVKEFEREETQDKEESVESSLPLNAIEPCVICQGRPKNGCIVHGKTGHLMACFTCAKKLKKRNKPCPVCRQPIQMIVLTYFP

## COc1cc(OC)c(-c2nc3c(n2C(C)C)[C@]2(C(=O)Nc4cc(Cl)ccc42)N(c2cc(F)cc(Cl)c2)C3=O)cn1 [Example R-175, (R)-6-chloro-5′-(3-chloro-5-fluorophenyl)-2′-(4,6-dimethoxypyridin-3-yl)-3′-isopropyl-3′H-spiro[dihydroindole-3,4′-pyrrolo[3,4-d]imidazole]-2,6′(5′H)-dione]
  IC50: 522 nM

## COc1cc(C2CC2)ccc1-c1nc2c(n1C(C)C)[C@]1(C(=O)Nc3cc(Cl)ccc31)N(c1cccc(Cl)c1)C2=O [Example R-116, (R)-6-chloro-5′-(3-chlorophenyl)-2′-(4-cyclopropyl-2-methoxyphenyl)-3′-isopropyl-3′H-spiro[dihydroindole-3,4′-pyrrolo[3,4-d]imidazole]-2,6′(5′H)-dione]
  IC50: 689 nM

## CCOc1ccc(-c2nc3c(n2C(C)C)[C@]2(C(=O)Nc4cc(Cl)ccc42)N(c2cccc(Cl)c2)C3=O)c(OC)c1 [Example R-100, (R)-6-chloro-5′-(3-chlorophenyl)-2′-(4-ethoxy-2-methoxyphenyl)-3′-isopropyl-3′H-spiro[dihydroindole-3,4′-pyrrolo[3,4-d]imidazole]-2,6′(5′H)-dione]
  IC50: 633 nM

## CCOc1ccc(-c2nc3c(n2C(C)C)[C@]2(C(=O)Nc4cc(Cl)ccc42)N(c2cc(Cl)ccc2C)C3=O)c(OC)n1 [Example R-146, (R)-6-chloro-5′-(5-chloro-2-methylphenyl)-2′-(6-ethoxy-2-methoxypyridin-3-yl)-3′-isopropyl-3′H-spiro[dihydroindole-3,4′-pyrrolo[3,4-d]imidazole]-2,6′(5′H)-dione]
  IC50: 6710 nM

## COc1cc(OC)c(-c2nc3c(n2C(C)C)[C@@]2(C(=O)Nc4cc(Cl)ccc42)N(c2ccc(C(N)=O)c(Cl)c2)C3=O)cn1 [Example S-65, (S)-2-chloro-4-(6-chloro-2′-(4,6-dimethoxypyridin-3-yl)-3′-isopropyl-2,6′-dioxo-3′,6′-dihydro-5′H-spiro[dihydroindole-3,4′-pyrrolo[3,4-d]imidazole]-5′-yl)benzamide]
  IC50: 4.04 nM

## COc1ncc(-c2nc3c(n2C(C)C)[C@]2(C(=O)Nc4cc(Cl)ccc42)N(c2cc(Cl)ccc2C#N)C3=O)c(OC)n1 [Example R-151, (R)-4-chloro-2-(6-chloro-2′-(2,4-dimethoxypyrimidin-5-yl)-3′-isopropyl-2,6′-dioxo-3′,6′-dihydro-5′H-spiro[dihydroindole-3,4′-pyrrolo[3,4-d]imidazole]-5′-yl)benzonitrile]
  IC50: 5370 nM

## CCc1ccc(OC)c(-c2nc3c(n2C(C)C)[C@]2(C(=O)Nc4cc(Cl)ccc42)N(c2cc(Cl)ccc2C)C3=O)c1 [Example R-37, (R)-6-chloro-5′-(5-chloro-2-methylphenyl)-2′-(5-ethyl-2-methoxyphenyl)-3′-isopropyl-3′H-spiro[dihydroindole-3,4′-pyrrolo[3,4-d]imidazole]-2,6′(5′H)-dione]
  IC50: 3110 nM

## COc1nc(C2CC2)ncc1-c1nc2c(n1C(C)C)[C@]1(C(=O)Nc3cc(Cl)ccc31)N(c1cc(Cl)ccc1C)C2=O [Example R-121, (R)-6-chloro-5′-(5-chloro-2-methylphenyl)-2′-(2-cyclopropyl-4-methoxypyrimidin-5-yl)-3′-isopropyl-3′H-spiro[dihydroindole-3,4′-pyrrolo[3,4-d]imidazole]-2,6′ (5′H)-dione]
  IC50: 300 nM

## COc1cc(C2CC2)ccc1-c1nc2c(n1C(C)C)[C@]1(C(=O)Nc3cc(Cl)ccc31)N(c1cc(Cl)cnc1C)C2=O [Example R-145, (R)-6-chloro-5′-(5-chloro-2-methylpyridin-3-yl)-2′-(4-cyclopropyl-2-methoxyphenyl)-3′-isopropyl-3′H-spiro[dihydroindole-3,4′-pyrrolo[3,4-d]imidazole]-2,6′(5′H)-dione]
  IC50: 749 nM

## COc1nc(C(C)C)ncc1-c1nc2c(n1C(C)C)[C@]1(C(=O)Nc3cc(Cl)ccc31)N(c1cc(Cl)ccc1C)C2=O [Example R-172, (R)-6-chloro-5′-(5-chloro-2-methylphenyl)-3′-isopropyl-2′-(2-isopropyl-4-methoxypyrimidin-5-yl)-3′H-spiro[dihydroindole-3,4′-pyrrolo[3,4-d]imidazole]-2,6′(5′H)-dione]
  IC50: 408 nM

## COc1ccccc1-c1nc2c(n1C(C)C)[C@]1(C(=O)Nc3cc(Cl)ccc31)N(c1cc(Cl)cn(C)c1=O)C2=O [Example R-43, (R)-6-chloro-5′-(5-chloro-1-methyl-2-oxo-1,2-dihydropyridin-3-yl)-3′-isopropyl-2′-(2-methoxyphenyl)-3′H-spiro[dihydroindole-3,4′-pyrrolo[3,4-d]imidazole]-2,6′(5′H)-dione]
  IC50: 130 nM

## COc1cc(OCC(F)F)ncc1-c1nc2c(n1C(C)C)[C@]1(C(=O)Nc3cc(Cl)ccc31)N(c1cc(Cl)ccc1C)C2=O [Example R-153, (R)-6-chloro-5′-(5-chloro-2-methylphenyl)-2′-(6-(2,2-difluoroethoxy)-4-methoxypyridin-3-yl)-3′-isopropyl-3′H-spiro[dihydroindole-3,4′-pyrrolo[3,4-d]imidazole]-2,6′(5′H)-dione]
  IC50: 31.1 nM

## COc1cc(OC)c(-c2nc3c(n2C(C)C)[C@]2(C(=O)Nc4cc(Cl)ccc42)N(c2ccc(C(N)=O)c(Cl)c2)C3=O)cn1 [Example R-65, (R)-2-chloro-4-(6-chloro-2′-(4,6-dimethoxypyridin-3-yl)-3′-isopropyl-2,6′-dioxo-3′,6′-dihydro-5′H-spiro[dihydroindole-3,4′-pyrrolo[3,4-d]imidazole]-5′-yl)benzamide]
  IC50: 498 nM

## COc1nc(C2CC2)ncc1-c1nc2c(n1C(C)C)[C@]1(C(=O)Nc3cc(Cl)ccc31)N(c1cc(F)cc(Cl)c1)C2=O [Example R-174, (R)-6-chloro-5′-(3-chloro-5-fluorophenyl)-2′-(2-cyclopropyl-4-methoxypyrimidin-5-yl)-3′-isopropyl-3′H-spiro[dihydroindole-3,4′-pyrrolo[3,4-d]imidazole]-2,6′(5′H)-dione]
  IC50: 515 nM

## COc1cc(C2CC2)ccc1-c1nc2c(n1C(C)C)[C@]1(C(=O)Nc3cc(Cl)ccc31)N(c1cc(Cl)ccc1C)C2=O [Example R-86, (R)-6-chloro-5′-(5-chloro-2-methylphenyl)-2′-(4-cyclopropyl-2-methoxyphenyl)-3′-isopropyl-3′H-spiro[dihydroindole-3,4′-pyrrolo[3,4-d]imidazole]-2,6′(5′H)-dione]
  IC50: 142 nM

## COc1cc(OC)c(-c2nc3c(n2C(C)C)C2(C(=O)Nc4cc(Cl)ccc42)N(c2cc(Cl)ccc2F)C3=O)cn1 (stereo not drawn) [Example 133, 6-chloro-5′-(5-chloro-2-fluorophenyl)-2′-(4,6-dimethoxypyridin-3-yl)-3′-isopropyl-3′H-spiro[dihydroindole-3,4′-pyrrolo[3,4-d]imidazole]-2,6′(5′H)-dione]
  inhibitory effect on MDM2 compared with positive control compound HDM201: better

## COc1ccc(C(N)=O)cc1-c1nc2c(n1C(C)C)C1(C(=O)Nc3cc(Cl)ccc31)N(c1cc(Cl)ccc1C)C2=O (stereo not drawn) [Example 29, 3-(6-chloro-5′-(5-chloro-2-methylphenyl)-3′-isopropyl-2,6′-dioxo-5′,6′-dihydro-3′H-spiro[dihydroindole-3,4′-pyrrolo[3,4-d]imidazole]-2′-yl)-4-methoxybenzamide]
  inhibitory effect on MDM2 compared with positive control compound HDM201: better

## COc1nc(N)ncc1-c1nc2c(n1C(C)C)C1(C(=O)Nc3cc(Cl)ccc31)N(c1cc(Cl)ccc1C)C2=O (stereo not drawn) [Example 90, 2′-(2-amino-4-methoxypyrimidin-5-yl)-6-chloro-5′-(5-chloro-2-methylphenyl)-3′-isopropyl-3′H-spiro[dihydroindole-3,4′-pyrrolo[3,4-d]imidazole]-2,6′(5′H)-dione]
  inhibitory effect on MDM2 compared with positive control compound HDM201: better

## COc1ncc(-c2nc3c(n2C(C)C)C2(C(=O)Nc4cc(Cl)ccc42)N(c2cc(Cl)ccc2C(C)C)C3=O)c(OC)n1 (stereo not drawn) [Example 156, 6-chloro-5′-(5-chloro-2-isopropylphenyl)-2′-(2,4-dimethoxypyrimidin-5-yl)-3′-isopropyl-3′H-spiro[dihydroindole-3,4′-pyrrolo[3,4-d]imidazole]-2,6′(5′H)-dione]
  IC50: 11.2 nM

## COc1ncc(-c2nc3c(n2C(C)C)[C@@]2(C(=O)Nc4cc(Cl)ccc42)N(c2ccc(OC)c(Cl)c2)C3=O)c(OC)n1 [Example S-48, (S)-6-chloro-5′-(3-chloro-4-methoxyphenyl)-2′-(2,4-dimethoxypyrimidin-5-yl)-3′-isopropyl-3′H-spiro[dihydroindole-3,4′-pyrrolo[3,4-d]imidazole]-2,6′(5′H)-dione]
  IC50: 1.46 nM

## COc1ncc(-c2nc3c(n2C(C)C)[C@@]2(C(=O)Nc4cc(Cl)ccc42)N(c2ccc(C(N)=O)c(Cl)c2)C3=O)c(OC)n1 [Example S-60, (S)-2-chloro-4-(6-chloro-2′-(2,4-dimethoxypyrimidin-5-yl)-3′-isopropyl-2,6′-dioxo-3′,6′-dihydro-5′H-spiro[dihydroindole-3,4′-pyrrolo[3,4-d]imidazole]-5′-yl)benzamide]
  IC50: 4.81 nM
